Laboratory results from ChEMBL document CHEMBL3045446, “In vitro antimicrobial and antimycobacterial activity of some chalcones and their derivatives” (2013).
In brackets after ≈: the same amount, converted by molar mass.

Columns and labels:
Format in all cases: functional
Aspergillus fumigatus [1] = assay: Antimicrobial activity against Aspergillus fumigatus MTCC 343 assessed as growth inhibition after 48 hr by agar streak dilution method; conditions: MTCC 343, 48 h
Salmonella typhi [2] = assay: Antimicrobial activity against Salmonella enterica subsp. enterica serovar Typhi MTCC 733 assessed as growth inhibition after 24 hr by agar streak dilution method; conditions: MTCC 733, 24 h
[3] = system: Mycobacterium tuberculosis; assay: Antituberculosis activity against Mycobacterium tuberculosis H37Rv assessed as growth inhibition after 12 to 28 days by L-J MIC method; conditions: for MIC: Mycobacterium tuberculosis, H37Rv
Proteus vulgaris [4] = assay: Antimicrobial activity against Proteus vulgaris MTCC 1771 assessed as growth inhibition after 24 hr by agar streak dilution method; conditions: MTCC 1771, 24 h
Aspergillus niger [5] = assay: Antimicrobial activity against Aspergillus niger MTCC 282 assessed as growth inhibition after 48 hr by agar streak dilution method; conditions: MTCC 282, 48 h
Bacillus cereus [6] = assay: Antimicrobial activity against Bacillus cereus MTCC 430 assessed as growth inhibition after 24 hr by agar streak dilution method; conditions: MTCC 430, 24 h
Escherichia coli [7] = assay: Antimicrobial activity against Escherichia coli MTCC 739 assessed as diameter of growth inhibition zone after 24 hr
Pseudomonas aeruginosa [8] = assay: Antimicrobial activity against Pseudomonas aeruginosa MTCC 741 assessed as diameter of growth inhibition zone after 24 hr
Aspergillus clavatus [9] = assay: Antimicrobial activity against Aspergillus clavatus MTCC 1323 assessed as growth inhibition after 48 hr by agar streak dilution method; conditions: MTCC 1323, 48 h
Staphylococcus aureus [10] = assay: Antimicrobial activity against Staphylococcus aureus MTCC 96 assessed as growth inhibition after 24 hr by agar streak dilution method; conditions: MTCC 96, 24 h
Bacillus cereus [11] = assay: Antimicrobial activity against Bacillus cereus MTCC 430 assessed as diameter of growth inhibition zone after 24 hr
Candida albicans [12] = assay: Antimicrobial activity against Candida albicans MTCC 183 assessed as diameter of growth inhibition zone after 48 hr
Aspergillus clavatus [13] = assay: Antimicrobial activity against Aspergillus clavatus MTCC 1323 assessed as diameter of growth inhibition zone after 48 hr
Shigella flexneri [14] = assay: Antimicrobial activity against Shigella flexneri MTCC1457 assessed as diameter of growth inhibition zone after 24 hr
Proteus vulgaris [15] = assay: Antimicrobial activity against Proteus vulgaris MTCC 1771 assessed as diameter of growth inhibition zone after 24 hr
Escherichia coli [16] = assay: Antimicrobial activity against Escherichia coli MTCC 739 assessed as growth inhibition after 24 hr by agar streak dilution method; conditions: MTCC 739, 24 h
Aspergillus fumigatus [17] = assay: Antimicrobial activity against Aspergillus fumigatus MTCC 343 assessed as diameter of growth inhibition zone after 48 hr
Klebsiella pneumoniae [18] = assay: Antimicrobial activity against Klebsiella pneumoniae MTCC 109 assessed as diameter of growth inhibition zone after 24 hr
Aspergillus niger [19] = assay: Antimicrobial activity against Aspergillus niger MTCC 282 assessed as diameter of growth inhibition zone after 48 hr
Pseudomonas aeruginosa [20] = assay: Antimicrobial activity against Pseudomonas aeruginosa MTCC 741 assessed as growth inhibition after 24 hr by agar streak dilution method; conditions: MTCC 741, 24 h
Candida albicans [21] = assay: Antimicrobial activity against Candida albicans MTCC 183 assessed as growth inhibition after 48 hr by agar streak dilution method; conditions: MTCC 183, 48 h
Shigella flexneri [22] = assay: Antimicrobial activity against Shigella flexneri MTCC1457 assessed as growth inhibition after 24 hr by agar streak dilution method; conditions: MTCC1457, 24 h
Salmonella typhi [23] = assay: Antimicrobial activity against Salmonella enterica subsp. enterica serovar Typhi MTCC 733 assessed as diameter of growth inhibition zone after 24 hr
Klebsiella pneumoniae [24] = assay: Antimicrobial activity against Klebsiella pneumoniae MTCC 109 assessed as growth inhibition after 24 hr by agar streak dilution method; conditions: MTCC 109, 24 h
Staphylococcus aureus [25] = assay: Antimicrobial activity against Staphylococcus aureus MTCC 96 assessed as diameter of growth inhibition zone after 24 hr

Row | SMILES | MIC (Aspergillus fumigatus [1]) [µg/mL] | MIC (Salmonella typhi [2]) [µg/mL] | growth inhibition (GI) [3] [%] | MIC [3] [µg/mL] | MIC (Proteus vulgaris [4]) [µg/mL] | MIC (Aspergillus niger [5]) [µg/mL] | MIC (Bacillus cereus [6]) [µg/mL] | diameter of the inhibition zone (DIZ) (Escherichia coli [7]) [mm] | diameter of the inhibition zone (DIZ) (Pseudomonas aeruginosa [8]) [mm] | MIC (Aspergillus clavatus [9]) [µg/mL] | MIC (Staphylococcus aureus [10]) [µg/mL] | diameter of the inhibition zone (DIZ) (Bacillus cereus [11]) [mm] | diameter of the inhibition zone (DIZ) (Candida albicans [12]) [mm] | diameter of the inhibition zone (DIZ) (Aspergillus clavatus [13]) [mm] | diameter of the inhibition zone (DIZ) (Shigella flexneri [14]) [mm] | diameter of the inhibition zone (DIZ) (Proteus vulgaris [15]) [mm] | MIC (Escherichia coli [16]) [µg/mL] | diameter of the inhibition zone (DIZ) (Aspergillus fumigatus [17]) [mm] | diameter of the inhibition zone (DIZ) (Klebsiella pneumoniae [18]) [mm] | diameter of the inhibition zone (DIZ) (Aspergillus niger [19]) [mm] | also measured
1 | COc1ccc(C2CC(c3ccc(Nc4cc(=O)oc5ccccc45)cc3)=NN2C(C)=O)cc1OC (centres undefined) | 50 (≈ 103 µM) | 25 (≈ 51.7 µM) | 98 | 100 (≈ 207 µM) | 50 (≈ 103 µM) | 25 (≈ 51.7 µM) | 50 (≈ 103 µM) | 21 | 20 | 50 (≈ 103 µM) | 25 (≈ 51.7 µM) | 18 | 22 | 20 | 23 | 20 | 25 (≈ 51.7 µM) | 19 | 22 | 23 | MIC (Pseudomonas aeruginosa [20]): 50 µg/mL (≈ 103 µM); MIC (Candida albicans [21]): 25 µg/mL (≈ 51.7 µM); MIC (Shigella flexneri [22]): 12.5 µg/mL (≈ 25.9 µM); diameter of the inhibition zone (DIZ) (Salmonella typhi [23]): 21 mm; MIC (Klebsiella pneumoniae [24]): 25 µg/mL (≈ 51.7 µM); diameter of the inhibition zone (DIZ) (Staphylococcus aureus [25]): 20 mm
2 | N#Cc1c(-c2ccccc2Br)cc(-c2ccc(Nc3cc(=O)oc4ccccc34)cc2)nc1N | 12.5 (≈ 24.5 µM) | 25 (≈ 49.1 µM) | 98 | 100 (≈ 196 µM) | 25 (≈ 49.1 µM) | 25 (≈ 49.1 µM) | 25 (≈ 49.1 µM) | 18 | 19 | 25 (≈ 49.1 µM) | 25 (≈ 49.1 µM) | 20 | 24 | 19 | 22 | 20 | 50 (≈ 98.2 µM) | 22 | 23 | 22 | MIC (Pseudomonas aeruginosa [20]): 50 µg/mL (≈ 98.2 µM); MIC (Candida albicans [21]): 25 µg/mL (≈ 49.1 µM); MIC (Shigella flexneri [22]): 12.5 µg/mL (≈ 24.5 µM); diameter of the inhibition zone (DIZ) (Salmonella typhi [23]): 22 mm; MIC (Klebsiella pneumoniae [24]): 12.5 µg/mL (≈ 24.5 µM); diameter of the inhibition zone (DIZ) (Staphylococcus aureus [25]): 23 mm
3 | Nc1nc(-c2ccccc2)cc(-c2ccc(Nc3cc(=O)oc4ccccc34)cc2)n1 | 50 (≈ 123 µM) | 50 (≈ 123 µM) | 95 | 500 (≈ 1230 µM) | 100 (≈ 246 µM) | 50 (≈ 123 µM) | 100 (≈ 246 µM) | 14 | 12 | 25 (≈ 61.5 µM) | 100 (≈ 246 µM) | 15 | 17 | 21 | 14 | 15 | 100 (≈ 246 µM) | 19 | 15 | 17 | MIC (Pseudomonas aeruginosa [20]): 100 µg/mL (≈ 246 µM); MIC (Candida albicans [21]): 50 µg/mL (≈ 123 µM); MIC (Shigella flexneri [22]): 100 µg/mL (≈ 246 µM); diameter of the inhibition zone (DIZ) (Salmonella typhi [23]): 17 mm; MIC (Klebsiella pneumoniae [24]): 100 µg/mL (≈ 246 µM); diameter of the inhibition zone (DIZ) (Staphylococcus aureus [25]): 13 mm
4 | N#Cc1c(-c2ccc(Cl)cc2Cl)cc(-c2ccc(Nc3cc(=O)oc4ccccc34)cc2)nc1N | 12.5 (≈ 25 µM) | 12.5 (≈ 25 µM) | 99 | 25 (≈ 50.1 µM) | 3.12 (≈ 6.25 µM) | 12.5 (≈ 25 µM) | 6.25 (≈ 12.5 µM) | 20 | 25 | 25 (≈ 50.1 µM) | 3.12 (≈ 6.25 µM) | 26 | 23 | 22 | 23 | 28 | 12.5 (≈ 25 µM) | 23 | 23 | 22 | MIC (Pseudomonas aeruginosa [20]): 6.25 µg/mL (≈ 12.5 µM); MIC (Candida albicans [21]): 12.5 µg/mL (≈ 25 µM); MIC (Shigella flexneri [22]): 12.5 µg/mL (≈ 25 µM); diameter of the inhibition zone (DIZ) (Salmonella typhi [23]): 24 mm; MIC (Klebsiella pneumoniae [24]): 12.5 µg/mL (≈ 25 µM); diameter of the inhibition zone (DIZ) (Staphylococcus aureus [25]): 28 mm
